For series [1], the target named is recombinant 17bHSD13 (N2-K300) (Homo sapiens (Human), UniProt Q7Z5P4). The series can be described thus: In Vitro 17bHSD13 Enzyme Assay. Type of series: biochemical. Particulars: 80 nM 17bHSD13, 0.5 mM NAD, 20 μM Estradiol, 2.5 h; estradiol to estrone by LC-MS/MS. Put shortly: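 Human 17bHSD13 (N2-K300, 80 nM) with 0.5 mM NAD, 20 μM estradiol and varied compound in 50 mM Tris-Cl pH 7.4, 5 mM EDTA, 0.01% DDM. Estrone/(estrone+estradiol) ratio read by LC-MS/MS (APCI, positive MRM). Inhibition normalised to DMSO and a known-inhibitor control; IC50 from curve fit.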
Sequence of recombinant 17bHSD13 (N2-K300) (Q7Z5P4 2-300): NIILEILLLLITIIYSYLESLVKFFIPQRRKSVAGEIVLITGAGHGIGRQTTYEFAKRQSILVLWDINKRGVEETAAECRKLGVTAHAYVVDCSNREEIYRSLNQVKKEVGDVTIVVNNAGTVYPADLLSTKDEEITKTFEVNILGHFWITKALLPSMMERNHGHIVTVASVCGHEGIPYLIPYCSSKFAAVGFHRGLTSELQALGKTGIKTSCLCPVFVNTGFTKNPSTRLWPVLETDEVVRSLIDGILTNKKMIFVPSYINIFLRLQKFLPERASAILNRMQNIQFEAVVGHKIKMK

In series [2] the target is over expressed HSD17β13 in HEK293S cells (Homo sapiens (Human), UniProt Q7Z5P4). Nature of the series: In Vitro 17bHSD13 Cell Assay. Type of series: cell-based. Particulars: HEK293S cells over expressing HSD17β13; estradiol to estrone conversion, 18 h, LC-MS/MS; read-out: 17bHSD1713 Cell assay IC50. Put shortly: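 HEK293S cells overexpressing HSD17β13 convert estradiol to estrone; product read by LC-MS/MS (APCI, positive MRM) as AUC ratio estrone/(estrone+estradiol). Effect normalised between DMSO and maximal inhibition by a known inhibitor control; IC50 from curve fit.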
Sequence of over expressed HSD17β13 in HEK293S cells (Q7Z5P4 20-300): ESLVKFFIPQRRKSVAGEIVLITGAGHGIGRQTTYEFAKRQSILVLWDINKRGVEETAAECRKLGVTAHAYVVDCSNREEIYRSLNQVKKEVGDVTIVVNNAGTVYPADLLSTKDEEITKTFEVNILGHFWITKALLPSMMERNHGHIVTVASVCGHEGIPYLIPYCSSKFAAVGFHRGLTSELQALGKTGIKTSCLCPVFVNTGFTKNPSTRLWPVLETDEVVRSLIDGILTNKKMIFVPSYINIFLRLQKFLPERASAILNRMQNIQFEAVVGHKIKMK

The test system of the next series is human hepatocytes. The series can be described thus: Assay A: Metabolic Stability in Human Hepatocytes. Type of series: in vitro ADME. As to conditions: cryopreserved human hepatocytes, 10^6 viable cells/mL, 1 μM compound, 37° C. The method, then:
Assay A: Metabolic Stability in Human Hepatocytes
Hepatocyte metabolic stability was determined in accordance with the method described by Jacobson et al., An optimized automated assay for determination of metabolic stability using hepatocytes: assay validation, variance component analysis, and in vivo relevance. Assay Drug Dev Technol 2007, 5 (3), 403-415. DOI: 10.1089/adt.2007.059, which is incorporated herein by reference. Cryopreserved hepatocytes at a concentration of 10^6 viable cells/mL were used. After thawing, hepatocytes were incubated for 10 min to warm to 37° C. and test compounds, dissolved in acetonitrile, were added to give a final concentration of 1 μM. At 0.5, 5, 15, 30, 45, 60, 80, 100 and 120 min, the incubation system was mixed and 20 μL aliquots were transferred at each time point to wells in a separate plate filled with 80 μL MeCN to stop the reaction. The quenching plate was then vortexed followed by centrifugation, and supernatants were analyzed by LC-MS/MS. Peak areas were determined from extracted ion chromatograms, and the in vitro intrinsic clearance (in vitro CLint, in μL/min/10^6 cells) of parent compound was calculated from the slope in the regression analysis of the natural logarithm of parent concentration vs time curve.

The target in the next series is CYP2C9 (Homo sapiens (Human), UniProt P11712). Nature of the series: Assay B: Cytochrome P450 Inhibition 2C9.
Sequence of CYP2C9 (P11712 whole entry): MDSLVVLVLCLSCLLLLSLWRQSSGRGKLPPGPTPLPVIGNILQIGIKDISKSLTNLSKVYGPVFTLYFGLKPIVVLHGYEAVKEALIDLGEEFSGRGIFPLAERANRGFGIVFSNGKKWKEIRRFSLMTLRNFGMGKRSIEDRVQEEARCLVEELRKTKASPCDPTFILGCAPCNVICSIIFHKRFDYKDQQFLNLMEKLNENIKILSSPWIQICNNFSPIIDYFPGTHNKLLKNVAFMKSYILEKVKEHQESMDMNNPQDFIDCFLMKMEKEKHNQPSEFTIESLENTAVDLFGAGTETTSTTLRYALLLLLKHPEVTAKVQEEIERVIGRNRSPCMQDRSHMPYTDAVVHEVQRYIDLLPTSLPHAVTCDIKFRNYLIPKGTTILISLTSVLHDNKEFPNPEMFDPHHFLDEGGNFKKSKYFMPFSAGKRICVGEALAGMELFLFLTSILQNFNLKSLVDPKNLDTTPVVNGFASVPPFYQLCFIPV
Series [3] deals with recombinant 17bHSD4 (M1-N311) (Homo sapiens (Human), UniProt P51659). The series can be described thus: In Vitro 17bHSD4 Enzyme Assay. Type of series: biochemical. Particulars: 40 nM 17bHSD4, 0.125 mM NAD, 15 μM Estradiol, 1.5 h; NADH fluorescence; read-out: 17HSD17b4 Enzyme assay IC50. On the procedure: In Vitro 17bHSD4 Enzyme Assay
Sequence of recombinant 17bHSD4 (M1-N311) (P51659 1-311): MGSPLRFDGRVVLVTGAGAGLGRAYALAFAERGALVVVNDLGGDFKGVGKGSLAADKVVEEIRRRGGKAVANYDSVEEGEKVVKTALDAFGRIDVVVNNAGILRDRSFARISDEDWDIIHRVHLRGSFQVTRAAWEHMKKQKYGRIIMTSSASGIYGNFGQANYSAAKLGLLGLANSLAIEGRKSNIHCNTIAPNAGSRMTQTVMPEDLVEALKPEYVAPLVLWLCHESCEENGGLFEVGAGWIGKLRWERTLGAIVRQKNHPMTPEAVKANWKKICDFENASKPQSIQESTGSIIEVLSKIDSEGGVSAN
10 concentration of compounds (0.2 μl) in DMSO was added to GREINER FLUOTRAC 200 384 well plate (781076) using ECHO dispensing (BECKMAN COULTER). 80 nl of 10 mM Estradiol (SIGMA, E8875) was added using Echo dispensing. The enzyme reaction was initiated by addition, using MULTIDROP COMBI dispensing (THERMO FISHER), of 40 μl of a mix containing recombinant 17bHSD4 (M1-N311) and NAD. Final assay conditions were 40 nM of 17bHSD4, 0.125 mM of NAD, 15 μM Estradiol and various concentrations of compound in buffer (5 mM EDTA (TEKNOVA E0306), 0.01% DDM (AFFYMETRIX D310) in 50 mM Tris-Cl, pH 7.4). After each addition plates were centrifuged for 1 min at 150×g (EPPENDORF, 5810R, A-4-81). NADH formation was measured by fluorescence intensity (FI) (Ex360/Em460) at time zero (to) and at 1.5 h (t1) in a PHERASTAR FSX (BMG LABTECH). FI for each sample was calculated as FI at t1 minus FI at t0.
[…] […] was used for curve fitting and calculation of IC50 values.
Compound effect was calculated with the formula below;
where X represents the effect in the presence of test compound, min is DMSO and max is the maximum inhibition of enzyme using a known inhibitor as control.

The target in series [4] is over expressed HSD17β9 in HEK293S cells (Homo sapiens (Human), UniProt Q92781). Nature of the series: In Vitro 17bHSD9 Cell Assay. Type of series: cell-based. Particulars: HEK293S cells over expressing HSD17β9; retinol to retinal conversion, 18 h, LC-MS/MS; read-out: 17bHSD9 Cell assay IC50. The gist of the method:
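HEK293S cells overexpressing HSD17β9 were plated at 10K cells/well in DMEM + 10% FBS and cultured 18 h. Retinol-to-retinal conversion in media was quantified by LC-MS/MS (MRM) as retinal/(retinal + retinol). IC50 was fitted after normalisation to DMSO and full inhibition by a reference inhibitor.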

SMILES strings stand for the structures.

Sequence of over expressed HSD17β9 in HEK293S cells (Q92781 whole entry): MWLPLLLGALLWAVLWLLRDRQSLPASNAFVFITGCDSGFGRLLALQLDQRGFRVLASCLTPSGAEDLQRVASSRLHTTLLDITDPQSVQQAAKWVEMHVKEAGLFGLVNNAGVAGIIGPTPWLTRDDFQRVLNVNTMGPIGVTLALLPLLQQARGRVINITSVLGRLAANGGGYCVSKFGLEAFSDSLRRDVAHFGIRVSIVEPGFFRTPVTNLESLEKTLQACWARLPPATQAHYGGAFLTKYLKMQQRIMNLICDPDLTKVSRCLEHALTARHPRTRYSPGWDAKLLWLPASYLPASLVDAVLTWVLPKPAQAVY
Experimental for CYP2C9: A fluorescence-based method in 96-well format was used to determine the inhibition of 2C9 (Crespi, C. L. et al., Microtiter plate assays for inhibition of human, drug-metabolizing cytochromes P450. Anal Biochem 1997, 248 (1), 188-190. DOI: 10.1006/abio.1997.2145, which is incorporated herein by reference). The recombinant human enzymes used were prepared in house, except for CYP2D6 (CYPEX LTD, Dundee, UK). Different coumarin substrates, biotransformed into fluorescent metabolites, were used as probes for each individual CYP. A fluorescence plate reader (SPECTRAMAX GEMINIXS, MOLECULAR DEVICES, Sunnyvale, California, USA) was used to measure the levels of metabolites formed. A dilution series of the test substrates was prepared at eight different concentrations. For each CYP, a mixture of the enzyme, corresponding coumarin substrate, potassium phosphate buffer pH 7.4 and water (concentrations and volumes were CYP-dependent) were added to each well in a black 96-well plate. The test substrates at different concentrations were added. After 10 min pre-incubation, the co-factor NADPH was added to initiate the reaction. After 20-50 min (CYP and substrate-dependent) the reaction was terminated by addition of trisbase/MeCN (20:80). The plates were transferred to the fluorescence plate reader where the wavelengths were set individually for the different coumarin substrates and their respective fluorescent metabolite. The responses were exported to Excel where the IC50 curves were plotted (percent inhibition versus concentration) and IC50 values calculated for each test substrate and enzyme using XL-fit.

Broadly, the IC50 is the point on the concentration scale where inhibition reaches its midpoint. For the compound `O=C(c1noc(-c2cc(F)c(F)c(O)c2F)n1)N1CC2CC2(c2ccccc2)C1` (centres unmarked) [Example 77, (1-Phenyl-3-azabicyclo[3.1.0]hexan-3-yl)(5-(2,4,5-trifluoro-3-hydroxyphenyl)-1,2,4-oxadiazol-3-yl)methanone], the IC50 turned out to be 75 nM in series [1], 170 nM in series [2] and 0.3 µM at CYP2C9. Besides, the “Assay A: Human Heps Met Clint GMean CLint (μl/min/1E6)” value in the series with human hepatocytes is reported as 13.4 μl/min/1E6.

On to `O=C(c1noc(-c2cc(F)c(F)c(O)c2F)n1)N1CCC(c2ccccc2)C1` (centres unmarked) [Example 96, (3-Phenylpyrrolidin-1-yl)(5-(2,4,5-trifluoro-3-hydroxyphenyl)-1,2,4-oxadiazol-3-yl)methanone], for which the IC50 in series [1] was 47 nM; in series [3], 18 µM; in series [2], 170 nM; in series [4], 17.3 µM; against CYP2C9, 1.3 µM.

Turning to `CN(C(=O)c1cc(-c2ccc(F)c(O)c2)on1)c1ccnn1C1CCCCC1` [Example 7, N-(1-Cyclohexyl-1H-pyrazol-5-yl)-5-(4-fluoro-3-hydroxyphenyl)-N-methylisoxazole-3-carboxamide], the IC50 in series [1] is 83 nM; in series [3], > 50 µM; in series [2], 5050 nM; on CYP2C9, 8.4 µM.

In the case of `CN(C(=O)c1cc(-c2ccc(F)c(O)c2)no1)c1ccnn1C1CCCCC1` [Example 5, N-(1-Cyclohexyl-1H-pyrazol-5-yl)-3-(4-fluoro-3-hydroxyphenyl)-N-methylisoxazole-5-carboxamide], the IC50 in series [1] was 93 nM; in series [2], 2610 nM; in series [4] it was > 50 µM; against CYP2C9, 3 µM.

Take `N#Cc1c(C(=O)N2CC(F)(C3CC3)C2)noc1-c1cc(F)c(F)c(O)c1F` [Example 27, 3-(3-Cyclopropyl-3-fluoroazetidine-1-carbonyl)-5-(2,4,5-trifluoro-3-hydroxyphenyl)isoxazole-4-carbonitrile]: the IC50 in series [1] came to 382 nM; in series [2], 4090 nM; at CYP2C9 it was 3.1 µM. For the same compound, the “Assay A: Human Heps Met Clint GMean CLint (μl/min/1E6)” value in the series with human hepatocytes is recorded as 14.0 μl/min/1E6.

As for `COc1ccc(C(C)N(C)C(=O)c2noc(-c3cc(F)c(F)c(O)c3F)n2)cc1` (centres unmarked) [Example 78, N-(1-(4-Methoxyphenyl)ethyl)-N-methyl-5-(2,4,5-trifluoro-3-hydroxyphenyl)-1,2,4-oxadiazole-3-carboxamide], the IC50 in series [1] stood at 127 nM; in series [2] it was 800 nM; on CYP2C9, 3 µM. The “Assay A: Human Heps Met Clint GMean CLint (μl/min/1E6)” value in the series on human hepatocytes is recorded as 28.2 μl/min/1E6.

As to `O=C(Nc1ccnn1C1CCCCC1)c1cnc(-c2ccc(F)c(O)c2)o1` [Example 12, N-(1-Cyclohexyl-1H-pyrazol-5-yl)-2-(4-fluoro-3-hydroxyphenyl)oxazole-5-carboxamide], the results for the IC50 (in series [1]; in series [2]; against CYP2C9) were 4340 nM, > 50000 nM and 21.2 µM, respectively.

As to `O=C(c1noc(-c2cc(F)c(F)c(O)c2F)n1)N1CC[C@@H](c2ccc(Cl)cc2)C1` [Example 103, (S)-(3-(4-Chlorophenyl)pyrrolidin-1-yl)(5-(2,4,5-trifluoro-3-hydroxyphenyl)-1,2,4-oxadiazol-3-yl)methanone], the IC50 amounted to 26 nM in series [1]; 6.5 µM in series [3]; 530 nM in series [2]; 24.9 µM in series [4]; 0.8 µM at CYP2C9.

Regarding `O=C(c1noc(-c2cc(F)c(F)c(O)c2F)n1)N1CCC(Oc2ccc(F)cc2)C1` (centres unmarked) [Example 79, (3-(4-Fluorophenoxy)pyrrolidin-1-yl)(5-(2,4,5-trifluoro-3-hydroxyphenyl)-1,2,4-oxadiazol-3-yl)methanone], the IC50 is 106 nM in series [1], 1390 nM in series [2] and 2 µM against CYP2C9. Besides, the “Assay A: Human Heps Met Clint GMean CLint (μl/min/1E6)” value in the series with human hepatocytes was 10.1 μl/min/1E6.

For the compound `N#Cc1c(C(=O)N2CCC(O)(C(F)(F)F)CC2)noc1-c1cc(F)c(F)c(O)c1F` [Example 26, 3-(4-Hydroxy-4-(trifluoromethyl)piperidine-1-carbonyl)-5-(2,4,5-trifluoro-3-hydroxyphenyl)isoxazole-4-carbonitrile], the IC50 amounted to 278 nM in series [1], 2970 nM in series [2] and 4.4 µM at CYP2C9. In the series on human hepatocytes, the “Assay A: Human Heps Met Clint GMean CLint (μl/min/1E6)” value is 9.2 μl/min/1E6.

Take `O=C(c1noc(-c2cc(F)c(F)c(O)c2F)n1)N1CCOCC1` [Example 39, Morpholino(5-(2,4,5-trifluoro-3-hydroxyphenyl)-1,2,4-oxadiazol-3-yl)methanone]: the IC50 in series [1] was 1740 nM; in series [3] it was > 50 µM; in series [2] it was 1480 nM; in series [4], > 50 µM.

In the case of `N#Cc1c(C(=O)N2CCN(c3nc4ccccc4o3)CC2)noc1-c1cc(F)c(F)c(O)c1F` [Example 23, 3-(4-(Benzo[d]oxazol-2-yl)piperazine-1-carbonyl)-5-(2,4,5-trifluoro-3-hydroxyphenyl)isoxazole-4-carbonitrile], the IC50 in series [1] was 141 nM; in series [3], 33.9 µM; in series [2], 930 nM; in series [4] it was > 50 µM.

On to `C[C@@H]1CN(C(=O)c2nc(-c3cc(F)c(F)c(O)c3F)no2)C[C@H](C)O1` [Example 110, ((2R,6S)-2,6-Dimethylmorpholino)(3-(2,4,5-trifluoro-3-hydroxyphenyl)-1,2,4-oxadiazol-5-yl)methanone], for which the IC50 is 1010 nM in series [1], > 50 µM in series [3], 240 nM in series [2] and > 50 µM in series [4].

`O=C(c1noc(-c2cc(F)c(F)c(O)c2F)n1)N1CCC(Oc2cccnc2)CC1` [Example 70, (4-(Pyridin-3-yloxy)piperidin-1-yl)(5-(2,4,5-trifluoro-3-hydroxyphenyl)-1,2,4-oxadiazol-3-yl)methanone]: the IC50 in series [1] came out at 242 nM; in series [2], 2220 nM; at CYP2C9, 18.4 µM. Further, the “Assay A: Human Heps Met Clint GMean CLint (μl/min/1E6)” value in the series on human hepatocytes came to 12.4 μl/min/1E6.

Take `O=C(c1noc(-c2cc(F)c(F)c(O)c2F)n1)N1CCSCC1` [Example 40, Thiomorpholino(5-(2,4,5-trifluoro-3-hydroxyphenyl)-1,2,4-oxadiazol-3-yl)methanone]: the IC50 is 700 nM in series [1], > 50 µM in series [3], 1460 nM in series [2] and > 50 µM in series [4].

On to `CC(C)C1COCCN1C(=O)c1noc(-c2cc(F)c(F)c(O)c2F)n1` (centres unmarked) [Example 35, (3-Isopropylmorpholino)(5-(2,4,5-trifluoro-3-hydroxyphenyl)-1,2,4-oxadiazol-3-yl)methanone], for which the IC50 in series [1] was found to be 640 nM; in series [3], 42.2 µM; in series [2] it was 2220 nM; in series [4], 4.2 µM.
